Each structure is given as a SMILES string. Where two headings read alike, the source gives them in different places.

In one series the target is T1, KLK8 (Homo sapiens, UniProt O60259).
T1 construct: purchased 2B scientific
T1 sequence (O60259 33-260): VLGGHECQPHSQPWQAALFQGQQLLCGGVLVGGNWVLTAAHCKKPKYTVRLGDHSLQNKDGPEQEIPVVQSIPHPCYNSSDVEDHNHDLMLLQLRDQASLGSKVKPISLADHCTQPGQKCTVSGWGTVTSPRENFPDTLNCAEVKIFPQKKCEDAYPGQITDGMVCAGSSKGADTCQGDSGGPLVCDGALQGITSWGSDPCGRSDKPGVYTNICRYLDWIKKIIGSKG
As to the kind of experiment: KLK8 enzyme inhibition assay. In kind it is biochemical. To be noted: read-out: KLK8 pIC50 (converted). The method, then: (§1) Enzyme inhibition assays: All chemicals were purchased from Sigma Aldrich (Gillingham, UK) unless otherwise stated. All experiments were conducted in 384 well black, low volume microplates (Greiner 784076) with a final volume of 20 μL and compounds were dispensed into assay plates using an ECHO 550 acoustic dispenser (Labcyte). KLK6 (5 nM) (prepared as in ref. 21) was incubated with test compounds for 30 min at room temperature in assay buffer (50 mM Tris, pH 7.5, 150 mM NaCl, 1 mM EDTA, 0.05 % tween 20, 0.1 % bovine serum albumin (BSA), 1 mM dithiothreitol (DTT)) before the reaction was started by addition of 20 μM Boc‐Phe‐Ser‐Arg‐AMC substrate (Bachem). Fluorescence intensity was read at ex/em 355/460 following incubation for 2 h in the dark at room temperature.
(§2) Assays using KLK7 and KLK8 (2B scientific) were conducted in the same manner as for KLK6 with the following exceptions. Both KLK7 and KLK8 required activation before assaying. KLK7 was combined with an equal volume of 20 μg/ml thermolysin (R&D systems) in activation buffer (50 mM Tris, pH 7.5, 10 mM CaCl2, 150 mM NaCl and 0.05 % Brij‐L23) and incubated at 37 °C for 2 h, the reaction was stopped with the addition of 100 mM EDTA in stop solution (50 mM Tris, 150 mM NaCl, pH 8.5). KLK8 was combined with an equal volume of 0.4 mU/mL lysyl endopeptidase (Alpha laboratories) in activation buffer (50 mM Tris, pH 8.0) and incubated at 37 °C for 30 min. Activated KLK7 (40 nM) and KLK8 (25 nM) were assayed with 40 μM Mca‐RPKPVE‐Nval‐WRK(Dnp)‐NH2 fluorogenic MMP substrate (R&D systems) and 25 μM Boc‐V‐P‐R‐AMC substrate (R&D systems), respectively.

A further series concerns the target T2, Human trypsin (Homo sapiens, UniProt P07477).
T2 construct: purchased Polymun Scientific
Kind of series: Trypsin enzyme inhibition assay. In kind it is biochemical. The settings on record: read-out: Trypsin pIC50 (converted). The method, then:
Human thrombin was purchased from Biopur. Human trypsin was purchased from Polymun Scientific. Human Factor Xa was purchased from Enzo Life Sciences. […] Fluorescence intensity was then read at ex/em 485/535 following incubation for 1 h at room temperature (thrombin and factor Xa) or 20 min (trypsin).

The target of series [1] is T3, KLK6 (Homo sapiens, UniProt Q92876). As to the kind of experiment: KLK6 enzymatic inhibition assay (fluorogenic Boc-Phe-Ser-Arg-AMC substrate). In kind it is biochemical. To be noted: for IC50: read-out: KLK6 pIC50 (converted); for LipE: LipE=pIC50 – logP (KLK6 pIC50, ALogP). The arrangement: made in house. The method, then:
Using our previously published KLK6 assay format,21 we performed a HTS with the European Lead Factory (ELF),22 and tested ∼350,000 substances at 10 μM for their ability to reduce KLK6‐catalyzed hydrolysis of the fluorogenic Boc‐Phe‐Ser‐Arg‐AMC peptide.
High Throughput Screen: The European Lead Factory library of ∼350,000 compounds was used for high throughput screening at the Pivot Park Screening Center facilities in Oss, The Netherlands. […] For SPR, Biacore T200 was used and KLK6 was immobilized onto a CM5 chip. […] An 8 point 1 in 3 dilution series of 1 (50 μM to 0.02 μM) was also applied at the beginning and end of each screening day.
Enzyme inhibition assays: All chemicals were purchased from Sigma Aldrich (Gillingham, UK) unless otherwise stated.

A further series concerns the target T4, Human Factor Xa (Homo sapiens, UniProt P00742).
T4 construct: Human Factor Xa was purchased from Enzo Life Sciences; purchased Enzo Life Sciences
Kind of series: Factor Xa enzyme inhibition assay. Format: biochemical. The settings on record: read-out: Factor Xa pIC50 (converted). As to the method:
(§3) Human thrombin was purchased from Biopur. Human trypsin was purchased from Polymun Scientific. Human Factor Xa was purchased from Enzo Life Sciences. Thrombin (20 nM), trypsin (0.000015 %) or Factor Xa (10 nM) were assayed in a similar manner to the KLKs but were incubated with compound for 20 min at room temperature in assay buffer (50 mM Tris HCl, pH 7.6, 100 mM NaCl, 1 mg/ml CHAPS, 0.05 % bovine serum albumin (BSA), 1 mM dithiothreitol (DTT)) before the addition of 5 μM, 2.5 μM or 1.5 μM Rhodamine 110 substrate (Cambridge bioscience ltd) respectively. Fluorescence intensity was then read at ex/em 485/535 following incubation for 1 h at room temperature (thrombin and factor Xa) or 20 min (trypsin).

The target of the next series is T5, KLK7 (Homo sapiens, UniProt P49862).
T5 construct: purchased 2B scientific
Kind of series: KLK7 enzyme inhibition assay. Format: biochemical. The settings on record: read-out: KLK7 pIC50 (converted). The method, then: as §1, §2

Series [2] has as its target T3, KLK6. Kind of series: SPR binding assay (Biacore T200, KLK6 immobilized on CM5 chip). The settings on record: read-out: KLK6 pKD (converted). As to the method: High Throughput Screen: The European Lead Factory library of ∼350,000 compounds was used for high throughput screening at the Pivot Park Screening Center facilities in Oss, The Netherlands. HighRes Biosolutions robotic infrastructure using Cellario software was programmed to perform screening of 281 1536‐well plates. Using the primary KLK6 fluorescent intensity (FI) assay (see below), 7794 compounds having a Z‐score≤‐4 were selected for further follow‐up. An additional set of compounds was added based on Bayesian modeling to include potential false negatives in the hit confirmation. […] Upon testing of these compounds using SPR and LC‐MS, a qualified hit list (QHL) was registered containing 50 compounds. For SPR, Biacore T200 was used and KLK6 was immobilized onto a CM5 chip. 226 test compounds were screened at 4 concentrations: 20, 4, 0.8 and 0.16 μM in running buffer: 50 mM Tris‐HCl, 1 mM EDTA pH 7.5, 150 mM NaCl, 0.05 % Tween 20, 3 % DMSO at 25 °C. Control injections of 5 μM 1 were used throughout the screen to ensure that KLK6 was stable and had not been blocked by potential irreversible binders/denaturants. An 8 point 1 in 3 dilution series of 1 (50 μM to 0.02 μM) was also applied at the beginning and end of each screening day.

For a further series, the target named is T6, Human thrombin (Homo sapiens, UniProt P00734).
T6 construct: Human thrombin was purchased from Biopur; purchased Biopur
Kind of series: Thrombin enzyme inhibition assay. Format: biochemical. To be noted: read-out: Thrombin pIC50 (converted). As to the method:
as §3

A further series concerns the target KLK4 (Homo sapiens, UniProt Q9Y5K2). Kind of series: KLK4 inhibition (selectivity). In kind it is biochemical. The settings on record: read-out: KLK4 pIC50 (converted). From the text: Table 3 Activity of synthesized inhibitors against KLK6 and related proteases. | column: KLK4^a
In series [3] the test system is HCT116 cells. Kind of series: HCT116 cell growth and viability. Format: cell-based. The settings on record: at the tested concentrations (data not shown). From the text: We have previously shown that knockdown of KLK6 reduces migration and invasion of HCT116 cells in vitro.13 In order to test whether this effect could be recapitulated with small molecule KLK6 inhibitors, we measured the ability of 32 to reduce invasion of HCT116 cells. […] HCT116 cell growth and viability was not altered upon treatment with compounds 9 and 32 at the tested concentrations (data not shown).

In series [4] the test system is HCT116 cells. Kind of series: HCT116 Matrigel invasion assay. Format: cell-based. The settings on record: after 24 h; 9 at multiple concentrations; 32 at 50 nM and 500 nM. The method, then: Figure 5 HCT116 cells were treated with 9 or 32 at the indicated concentrations and plated on Matrigel®‐coated filters. The upper chamber contained serum‐free medium, while the lower chamber contained 10 % fetal bovine serum. After 24 h, the number of invading cells was measured optically. (A) This figure is one representative example of four biological replicates, each with similar outcomes. Error bars are SEM. Technical replicates: DMSO and 9 at 5 nM (n=3); 9 at 50 and 500 nM and 32 at all concentrations (n=6). Statistical significance was calculated using an unpaired two‐tailed t‐test. n.s=p≥0.05; **=p<0.01; ***=p<0.001. (B) Representative images (Scale bar, […]) of stained invaded cells outside of the inserts 24 h hours after treatment with 9, 32, or DMSO solvent control at the indicated concentrations. Phase contrast images were taken with EVOS FL Cell imagine system FL Auto microscope (Bio‐Rad).
Invasion assay: The HCT116 colorectal adenocarcinoma cell line (ATCC® CCL‐247™) was maintained in Dulbecco's Modified Eagle Medium (DMEM) with […] glucose, L‐glutamine w/o sodium pyruvate, supplemented with 10 % FBS and 1 % penicillin/streptomycin. […] The samples were transferred to a new 96 well plate and read at 560 nm on a Synergy 2 Multi‐Detection Microplate Reader (Bio‐Tek Instruments, Inc., Winooski, VT).

The mark [5] stands for this setting: HTS library sample, primary dose-response enzymatic inhibition assay.
Setting [6] is: resynthesized stereoisomers, enzymatic inhibition assay (Table 2).
Where [7] appears, read: synthesized inhibitors (Table 3), 8.6 = assay limit.

T4 sequence (P00742 235-488 limits assumed): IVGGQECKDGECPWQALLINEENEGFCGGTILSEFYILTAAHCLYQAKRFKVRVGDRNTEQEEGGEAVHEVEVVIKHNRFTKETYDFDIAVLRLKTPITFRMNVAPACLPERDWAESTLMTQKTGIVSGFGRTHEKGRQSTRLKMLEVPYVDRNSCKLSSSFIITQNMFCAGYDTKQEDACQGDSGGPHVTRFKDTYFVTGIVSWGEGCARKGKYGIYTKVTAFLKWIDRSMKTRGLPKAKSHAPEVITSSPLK
T4 sequence (P00742 41-179 partner limits assumed): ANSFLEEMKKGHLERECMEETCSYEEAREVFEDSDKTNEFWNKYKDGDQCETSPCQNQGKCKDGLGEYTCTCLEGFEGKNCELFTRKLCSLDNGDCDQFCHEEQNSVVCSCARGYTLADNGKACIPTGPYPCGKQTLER
T5 sequence (P49862 30-253, species assumed): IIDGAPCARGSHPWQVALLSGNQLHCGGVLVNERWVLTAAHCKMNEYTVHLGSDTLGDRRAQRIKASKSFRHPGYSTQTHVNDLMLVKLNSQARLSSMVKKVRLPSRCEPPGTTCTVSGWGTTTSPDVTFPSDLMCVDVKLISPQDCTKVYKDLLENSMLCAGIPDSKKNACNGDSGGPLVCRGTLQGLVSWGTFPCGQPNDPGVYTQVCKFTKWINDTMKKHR
Chain of KLK4 (Q9Y5K2 31-254, species assumed): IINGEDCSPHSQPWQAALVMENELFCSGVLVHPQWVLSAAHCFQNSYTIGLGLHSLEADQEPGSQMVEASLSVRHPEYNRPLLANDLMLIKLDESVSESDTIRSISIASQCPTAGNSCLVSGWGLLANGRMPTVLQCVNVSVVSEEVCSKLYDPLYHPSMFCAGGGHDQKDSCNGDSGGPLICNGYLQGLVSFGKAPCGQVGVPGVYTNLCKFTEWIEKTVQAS

On to `COc1cccc([C@H](C)NC(=O)[C@H]2CN(c3ccc(C(=N)N)cc3)C(=O)O2)c1` [Compound 5, (5R)‐3‐(4‐carbamimidoylphenyl)‐N‐[(S)‐1‐(3‐methoxyphenyl)ethyl]‐2‐oxooxazolidine‐5‐carboxamide], for which the IC50 at KLK8 is 10 µM; at Human trypsin, 5.01 µM; on KLK6 [1] (setting [5]), 0.0631 µM; at KLK6 [1] (setting [6]), 0.251 µM; at KLK6 [1] (setting [7]), 0.251 µM; on Human Factor Xa it was > 20 µM. Besides, the IC50 on KLK7 is > 20 µM; at Human thrombin, > 20 µM; at KLK4 it was 7.94 µM. In addition, the LipE on KLK6 [1] amounted to 4.79. Further, at KLK6 [2], the Kd was 0.1 µM.
As for `CCN(CC)C(=O)c1cccc(OCC2CN(c3ccc(C(=N)N)cc3)C(=O)O2)c1` (centres unmarked) [Compound 8], on KLK6 [1] (setting [5]), the IC50 was 7.94 µM. Further, the Kd on KLK6 [2] is 7.94 µM.
For the compound `CC(C)(NC(=O)[C@H]1CN(c2ccc(C(=N)N)cc2)C(=O)O1)c1ccccc1` [Compound 27, (5R)‐3‐(4‐carbamimidoylphenyl)‐2‐oxo‐N‐(2‐phenylpropan‐2‐yl)oxazolidine‐5‐carboxamide], the IC50 at KLK8 is > 20 µM; on Human trypsin, > 20 µM; at KLK6 [1] (setting [7]), 0.794 µM; at Human Factor Xa, > 20 µM; at KLK7 it was > 20 µM; at Human thrombin, > 20 µM. Further, the IC50 on KLK4 was 39.8 µM.
As to `N=C(N)c1ccc(N2CC(CC(=O)NCc3ccccc3C(F)(F)F)OC2=O)cc1` (centres unmarked) [Compound 6], at KLK6 [1] (setting [5]), the IC50 is 10 µM. Moreover, at KLK6 [2], the Kd is 12.6 µM.
On to `CC[C@H](NC(=O)[C@H]1CN(c2ccc(C(=N)N)cc2)C(=O)O1)c1cccc(OC)c1` [Compound 24, (5R)‐3‐(4‐carbamimidoylphenyl)‐N‐[(1S)‐1‐(3‐methoxyphenyl)propyl]‐2‐oxo‐oxazolidine‐5‐carboxamide], for which the IC50 on KLK8 is 5.01 µM; at Human trypsin, 1.58 µM; on KLK6 [1] (setting [7]), 0.0316 µM; on Human Factor Xa it was > 20 µM; at KLK7, > 20 µM; at Human thrombin, > 20 µM. In addition, the IC50 on KLK4 is 2.51 µM. The compound further showed a LipE at KLK6 [1] of 5.16. At KLK6 [1] (relative to 5), the “gain in potency for KLK6” value is ~10 fold.
In the case of `C[C@H](NC(=O)[C@H]1CN(c2ccc(C(=N)N)cc2)C(=O)O1)c1ccc2ccccc2c1` [Compound 30, (5R)‐3‐(4‐carbamimidoylphenyl)‐N‐[(1S)‐1‐(2‐naphthyl)ethyl]‐2‐oxo‐oxazolidine‐5‐carboxamide], the IC50 on KLK8 was 10 µM; on Human trypsin it was 3.98 µM; at KLK6 [1] (setting [7]), 0.1 µM; on Human Factor Xa, > 20 µM; on KLK7, > 20 µM; at Human thrombin, > 20 µM. Also, on KLK4, the IC50 was 3.16 µM. At KLK6 [1] (relative to 29), this compound gave a KLK6 potency loss of 10 fold.
Regarding `CCOC(=O)C[S+]([O-])CC1CN(c2ccc(C(=N)N)cc2)C(=O)O1` (centres unmarked) [Compound 7], the IC50 at KLK6 [1] (setting [5]) was 1.58 µM. For the same compound, the Kd on KLK6 [2] was 20 µM.
Turning to `COc1cccc([C@@H](C)NC(=O)[C@@H]2CN(c3ccc(C(=N)N)cc3)C(=O)O2)c1` [Compound 9], the IC50 on KLK6 [1] (setting [6]) was > 20 µM. The “HCT116 cell growth and viability” value with HCT116 cells [3] was “not altered”. Also, the “invasion of HCT116 cells” value in the series with HCT116 cells [4] is recorded as “no significant effect”.

Source of the values: PMC7004151, “Synthesis and Structure‐Activity Relationships of N‐(4‐Benzamidino)‐Oxazolidinones: Potent and Selective Inhibitors of Kallikrein‐Related Peptidase 6” (Chemmedchem, 2019).
